The source of these data is PubChem BioAssay (NCI).

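96-well plates; 48 h exposure; 5 concentrations. Endpoints by linear interpolation between flanking doses. Not reached: highest tested concentration assigned. GI50: concentration for 50% inhibition of growth. TGI denotes the concentration required for complete inhibition of growth.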 Where only a bound is given, the exact number is not on record here.

Test systems include NCI-H226 lung; MDA-N; UO-31 renal; K-562 leukemia; 786-0 renal; SK-MEL-5 melanoma; HL-60(TB) leukemia; COLO 205 colon; TK-10 renal; OVCAR-8 ovarian; DU-145 prostate; MALME-3M melanoma; UACC-62 melanoma; T-47D breast; OVCAR-3 ovarian; SK-MEL-2 melanoma.
Holding throughout (test): growth of human tumour cells (NCI), 48 h

Turning to `CC(=O)Nc1cc2c(cc1O)CC[C@@H]1[C@@H]2CC[C@]2(C)[C@@H](O)CC[C@@H]12`, the TGI with NCI-H226 lung was greater than 100 µM; in the experiment with MDA-N, 52.1 µM; in the experiment with UO-31 renal, 97.9 µM; in the experiment with K-562 leukemia, greater than 100 µM; with 786-0 renal, greater than 100 µM; in the experiment with SK-MEL-5 melanoma it was 59.8 µM. For the same compound, the TGI in the experiment on HL-60(TB) leukemia is greater than 100 µM; in the experiment on COLO 205 colon, 62.2 µM; with TK-10 renal, greater than 100 µM; in the experiment on OVCAR-8 ovarian, greater than 100 µM; with DU-145 prostate it was greater than 100 µM; in the experiment on MALME-3M melanoma it was greater than 100 µM. The values for the TGI in the experiment with UACC-62 melanoma, with T-47D breast and with OVCAR-3 ovarian were greater than 100 µM, 95.8 µM and greater than 100 µM, respectively. Besides, the GI50 with DU-145 prostate is greater than 100 µM; in the experiment with UACC-62 melanoma, 31.2 µM; in the experiment on OVCAR-3 ovarian, 9.2 µM.
For the compound `Cc1ccc2c(c1)[nH]c(=S)n2C=C1C(=O)CC(C)(C)CC1=O`, the TGI with NCI-H226 lung, with MDA-N, in the experiment on UO-31 renal, in the experiment on 786-0 renal, in the experiment on SK-MEL-5 melanoma and with HL-60(TB) leukemia was greater than 100 µM in each case. Also, the TGI with COLO 205 colon, with TK-10 renal, with OVCAR-8 ovarian, with DU-145 prostate, in the experiment with UACC-62 melanoma and in the experiment with SK-MEL-2 melanoma was greater than 100 µM in each case. Also, the TGI with T-47D breast and in the experiment with OVCAR-3 ovarian was greater than 100 µM each time.
Turning to `O=C(CCc1ccc(O)c(O)c1)NCCc1cc(OCc2ccccc2)cc(OCc2ccccc2)c1`, the TGI with NCI-H226 lung is 48.2 µM; in the experiment with MDA-N it was 29.2 µM; in the experiment on UO-31 renal it was 12.6 µM; in the experiment on K-562 leukemia, greater than 100 µM; in the experiment with 786-0 renal, 40 µM; in the experiment with SK-MEL-5 melanoma, 28.7 µM. Besides, the TGI with HL-60(TB) leukemia turned out to be 7.27 µM; in the experiment with COLO 205 colon, 14.6 µM; in the experiment on TK-10 renal it was 41.5 µM; with OVCAR-8 ovarian it was 43.4 µM; in the experiment with DU-145 prostate it was 32.3 µM; with UACC-62 melanoma, 47.4 µM. The TGI was 42 µM with SK-MEL-2 melanoma, 58.2 µM in the experiment with T-47D breast and greater than 100 µM with OVCAR-3 ovarian.
Regarding `C#CCOC(=O)C(N)CSSCC(N)C(=O)O` (stereo not given), the TGI in the experiment with NCI-H226 lung, in the experiment with MDA-N, in the experiment on UO-31 renal, in the experiment with 786-0 renal, in the experiment on SK-MEL-5 melanoma and with HL-60(TB) leukemia was greater than 100 µM each time. Further, the TGI in the experiment on COLO 205 colon, with TK-10 renal, in the experiment with OVCAR-8 ovarian, in the experiment with DU-145 prostate, in the experiment with MALME-3M melanoma and with UACC-62 melanoma was greater than 100 µM throughout. In addition, the TGI in the experiment on SK-MEL-2 melanoma and in the experiment with T-47D breast was greater than 100 µM each time.
On to `Cc1cc2c(cc1C)[n+](=O)c(C(=O)N1CCN(c3ccc([N+](=O)[O-])cc3)CC1)c(C)n2[O-]`, for which the TGI in the experiment with MDA-N is greater than 100 µM; in the experiment with UO-31 renal, greater than 100 µM; with K-562 leukemia, greater than 100 µM; in the experiment on 786-0 renal, 34.8 µM; in the experiment on SK-MEL-5 melanoma, greater than 100 µM; in the experiment with HL-60(TB) leukemia, greater than 100 µM. Also, the TGI in the experiment with COLO 205 colon is greater than 100 µM; with TK-10 renal, 40.4 µM; in the experiment with OVCAR-8 ovarian it was greater than 100 µM; in the experiment with DU-145 prostate, greater than 100 µM; in the experiment on MALME-3M melanoma it was greater than 100 µM; in the experiment with UACC-62 melanoma it was greater than 100 µM. In addition, the TGI in the experiment on SK-MEL-2 melanoma, in the experiment on T-47D breast and in the experiment on OVCAR-3 ovarian was greater than 100 µM in each case.
For `COc1cc(C(N)=O)cc(NC(=O)/C=C/c2ccccc2)c1OC`, the TGI in the experiment with MDA-N, with UO-31 renal, in the experiment with K-562 leukemia, in the experiment on 786-0 renal, in the experiment with SK-MEL-5 melanoma and with HL-60(TB) leukemia was greater than 100 µM in each case. In addition, the TGI in the experiment on COLO 205 colon, in the experiment with TK-10 renal, with OVCAR-8 ovarian, in the experiment on DU-145 prostate, with MALME-3M melanoma and in the experiment with UACC-62 melanoma was greater than 100 µM in each case. In addition, the TGI in the experiment on SK-MEL-2 melanoma, in the experiment on T-47D breast and with OVCAR-3 ovarian was greater than 100 µM throughout.
In the case of `c1ccc2c3c([nH]c2c1)C1c2[nH]c4ccccc4c2CCN1CC3`, the TGI in the experiment with NCI-H226 lung came to 37.6 µM; with MDA-N, 35.6 µM; in the experiment with UO-31 renal it was 18.5 µM; in the experiment with 786-0 renal it was 25.8 µM; in the experiment on SK-MEL-5 melanoma, 28 µM; with HL-60(TB) leukemia, 66.5 µM. For the same compound, the TGI in the experiment with COLO 205 colon amounted to 35.2 µM; in the experiment with TK-10 renal, 23.2 µM; with OVCAR-8 ovarian it was 26.9 µM; in the experiment on DU-145 prostate, 26.1 µM; in the experiment with MALME-3M melanoma, 30 µM; with UACC-62 melanoma, 33.9 µM. The TGI was 64.2 µM in the experiment on SK-MEL-2 melanoma, 37.1 µM in the experiment on T-47D breast and 25.1 µM in the experiment with OVCAR-3 ovarian.
Take `CN(C)c1ccc(/C=C(\NC(=O)c2ccccc2)C(=O)Nc2ccccc2C(=O)O)cc1`: the TGI with NCI-H226 lung, with MDA-N, in the experiment on UO-31 renal, in the experiment on K-562 leukemia, with 786-0 renal and in the experiment with SK-MEL-5 melanoma was greater than 100 µM in each case. For the same compound, the TGI in the experiment with HL-60(TB) leukemia, in the experiment on COLO 205 colon, with OVCAR-8 ovarian, in the experiment on DU-145 prostate, with MALME-3M melanoma and in the experiment on UACC-62 melanoma was greater than 100 µM throughout. Also, the TGI with SK-MEL-2 melanoma, with T-47D breast and in the experiment with OVCAR-3 ovarian was greater than 100 µM in each case.
For the compound `O=P1(Oc2ccc(Cl)cc2)OCCS1` (stereo not given), the TGI in the experiment with NCI-H226 lung, in the experiment on MDA-N, in the experiment with UO-31 renal, in the experiment with 786-0 renal, with SK-MEL-5 melanoma and with HL-60(TB) leukemia was greater than 100 µM in each case. For the same compound, the TGI in the experiment with COLO 205 colon, in the experiment with TK-10 renal, in the experiment with OVCAR-8 ovarian, in the experiment with DU-145 prostate, with MALME-3M melanoma and in the experiment on UACC-62 melanoma was greater than 100 µM each time. The TGI with SK-MEL-2 melanoma and with T-47D breast was greater than 100 µM throughout.
